Values of other authors, collected in US6344444B1 (Nutrition 21, priority 1997, dated 2002).

What was measured:
[1] = tested on: cholesterol-induced intimal hyperplasia; conditions: rabbits, injection or ingestion
femoral density = conditions: postmenopausal women, injection 50 mg twice weekly, over 14 months
bone turnover = conditions: ovariectomized rats, oral

Row | Compound | intimal thickening and fragmentation of arterial elastic fibers [1] | increase of femoral density (average) (femoral density) [%] | bone formation rate (bone turnover) | bone turnover (bone turnover)
1 | NCCCC[C@H](N)C(=O)O.O[Si](O)(O)O [lysine silicate] | prevented |  |  | 
2 | C[Si](O)(O)O [monomethyltrisilanol] | prevented | 4.7 |  | 
3 | orthosilicic acid |  |  | increased | slowed
